Values quoted from earlier work in article PMC10537421, “Co-Dispersion Delivery Systems with Solubilizing Carriers Improving the Solubility and Permeability of Cannabinoids (Cannabidiol, Cannabidiolic Acid, and Cannabichromene) from Cannabis sativa (Henola Variety) Inflorescences” (Pharmaceutics, 2023).
Like-named read-outs stand apart in the source and are kept apart here.

Assays:
[1] = for CBD released: SIF and SGF
[2] = for bioavailability: oral administration; for bioavailability after inhalation: smoking or vaporizing

CCCCCc1cc(O)c2c(c1)OC(C)(CCC=C(C)C)C=C2 (stereo not drawn) [CBC, cannabichromene]
pKa (approximate): 9.5–10.3

C=C(C)[C@@H]1CCC(C)=C[C@H]1c1c(O)cc(CCCCC)cc1O [CBD, cannabidiol]
CBD released ([1]; 1 h): less than 3%
CBD released ([1]; 48 h): less than 10%
CBD detected after SIF digestion (bioaccessibility) ([1]; simulated intestinal fluid): 29%
bioavailability after sublingual administration [2]: 13–19%
bioavailability [2]: ≈ 6%
bioavailability after inhalation [2]: 11–45%
pKa: 9.3–10.3

C=C(C)[C@@H]1CCC(C)=C[C@H]1c1c(O)cc(CCCCC)c(C(=O)O)c1O [CBDA, cannabidiolic acid]
pKa (approximate): ~2.9

CCCCCc1cc(O)c2c(c1)OC(C)(C)[C@@H]1CCC(C)=C[C@@H]21 [THC, tetrahydrocannabinol]
bioavailability after sublingual administration [2]: 13–14%
bioavailability [2]: 4–12%
bioavailability after inhalation [2]: 10% to 35%
